Key:
[1] = 303.15 K, 101.33 kPa, Liquid; for viscosity: Capillary tube (Ostwald / Ubbelohde) method; for mass density: Vibrating tube method
[2] = xn = mol fraction of the nth substance listed; details: 303.15 K, 101 kPa, Liquid; for viscosity: Capillary tube (Ostwald / Ubbelohde) method; for mass density: Vibrating tube method

CCCCO [butan-1-ol]
[1]
Details | mass density [kg/m3] | viscosity [mPa·s]
– | 801.9 | 2.25

C1CCCCC1 [cyclohexane]
[1]
Details | mass density [kg/m3] | viscosity [mPa·s]
– | 769.12 | 0.821

CCOC(C)=O [ethyl acetate]
[1]
Details | mass density [kg/m3] | viscosity [mPa·s]
– | 888.5 | 0.4

CCOC(C)=O [ethyl acetate] + CCCCO
[2]
Details | mass density [kg/m3] | viscosity [mPa·s]
x2 = 0.1411 | 875.69 | 0.467
x2 = 0.3184 | 859.95 | 0.563
x2 = 0.3797 | 854.67 | 0.609
x2 = 0.4659 | 847.1 | 0.673
x2 = 0.5634 | 838.65 | 0.766
x2 = 0.6782 | 828.8 | 0.92
x2 = 0.7595 | 821.86 | 1.076
x2 = 0.8312 | 815.82 | 1.287
x2 = 0.9291 | 807.64 | 1.736

CCCCCCCCO [octan-1-ol]
[1]
Details | mass density [kg/m3] | viscosity [mPa·s]
– | 817.52 | 6.19

CCCCCCCCO [octan-1-ol] + C1CCCCC1
[2]
Details | mass density [kg/m3] | viscosity [mPa·s]
x1 = 0.2008 | 780.75 | 1.242
x1 = 0.3755 | 789.9 | 1.792
x1 = 0.5205 | 796.98 | 2.4
x1 = 0.6054 | 800.89 | 2.847
x1 = 0.7044 | 805.34 | 3.46
x1 = 0.7758 | 808.38 | 3.983
x1 = 0.8541 | 811.63 | 4.633
x1 = 0.901 | 813.56 | 5.089
x1 = 0.9553 | 815.75 | 5.664

CCCCCCCCO [octan-1-ol] + CCOC(C)=O
[2]
Details | mass density [kg/m3] | viscosity [mPa·s]
x1 = 0.0809 | 878.16 | 0.537
x1 = 0.162 | 869.16 | 0.68
x1 = 0.3257 | 854.09 | 1.028
x1 = 0.4413 | 845.4 | 1.314
x1 = 0.5431 | 838.72 | 1.596
x1 = 0.6637 | 831.83 | 2.04
x1 = 0.7062 | 829.6 | 2.26
x1 = 0.8574 | 822.7 | 3.545
x1 = 0.9251 | 820.07 | 4.563

CCCCCO [pentan-1-ol]
[1]
Details | mass density [kg/m3] | viscosity [mPa·s]
– | 807.11 | 2.839

CCCCCO [pentan-1-ol] + CCOC(C)=O
[2]
Details | mass density [kg/m3] | viscosity [mPa·s]
x1 = 0.1095 | 877.42 | 0.474
x1 = 0.2164 | 867.46 | 0.541
x1 = 0.3291 | 857.43 | 0.626
x1 = 0.4303 | 848.83 | 0.722
x1 = 0.5202 | 841.5 | 0.829
x1 = 0.6103 | 834.44 | 0.97
x1 = 0.7187 | 826.3 | 1.211
x1 = 0.8051 | 820.09 | 1.508
x1 = 0.9009 | 813.46 | 2.017

— the NIST ThermoML archive (doi:10.1016/j.tca.2009.02.022)
